Reference: patent US9101632B2, “Kinase inhibitors, prodrug forms thereof and their use in therapy” (AUCKLAND UNISERVICES LIMITED, priority 2009, dated 2015)
Like-named read-outs stand apart in the source and are kept apart here. Values belong to the molecule of their own block, whether it stands above or below them.

Columns and labels:
[1] = tested on: H1975 tumours; conditions: H1975 xenograft, q3dx4, intraperitoneal; for Drug related deaths: lactate buffer pH 4; for Weight Loss Nadir (%): mean nadir relative to day 0 weight; on Drug related deaths: test concentration or dose not given here; on Weight Loss Nadir (%): test concentration or dose not given here
[2] = tested on: A431 cells; test: Inhibition of cellular proliferation (sulforhodamine B staining); conditions: for A431 HCR (Hypoxic Cytotoxicity Ratio): fold change in intra-experimental IC50, 4 hours anoxia relative to oxic only
[3] = tested on: H1975 cells; test: as above; conditions: for H1975 HCR (Hypoxic Cytotoxicity Ratio): fold change in intra-experimental IC50, 4 hours anoxia relative to oxic only
[4] = tested on: SKOV3 cells; test: as above; conditions: for SKOV3 HCR (Hypoxic Cytotoxicity Ratio): fold change in intra-experimental IC50, 4 hours anoxia relative to oxic only
[5] = tested on: A431 tumours; conditions: A431 xenograft, q3dx4, intraperitoneal; for Drug related deaths: lactate buffer pH 4; for TGD (Tumour Growth Delay): % increase in time to RTV4 relative to control; for Weight Loss Nadir (%): mean nadir relative to day 0 weight; on all read-outs here: test concentration or dose not given here
[6] = pulse radiolysis, determined against methylviologen
[7] = read-out: Cellular Growth Inhibition IC50 A431 Anoxic, initial 4 hours of the 24 hour exposure under anoxic conditions
[8] = read-out: Cellular Growth Inhibition IC50 H1975 Anoxic, initial 4 hours of the 24 hour exposure under anoxic conditions
[9] = read-out: Cellular Growth Inhibition IC50 SKOV3 Anoxic, initial 4 hours of the 24 hour exposure under anoxic conditions
[10] = read-out: Cellular Growth Inhibition IC50 A431 Oxic, 24 hour exposure entirely under oxic conditions, washed, further 4 days
[11] = read-out: Cellular Growth Inhibition IC50 SKOV3 Oxic, 24 hour exposure entirely under oxic conditions, washed, further 4 days
[12] = read-out: Cellular Growth Inhibition IC50 H1975 Oxic, 24 hour exposure entirely under oxic conditions, washed, further 4 days

Structure (SMILES): CN(C)C/C=C/C(=O)Nc1cc2c(Nc3ccc(OCc4cccc(Cl)c4)c(Cl)c3)ncnc2cn1 [Compound 1, (2E)-N-(4-{3-chloro-4-[(3-chlorobenzyl)oxy]anilino}pyrido[3,4-d]pyrimidin-6-yl)-4-(dimethylamino)-2-butenamide]
- Drug related deaths [1]: 0
- Weight Loss Nadir (%) [1]: −3.6 ± 3.0%
- IC50 [2, 7]: 221 nM
- IC50 [3, 8]: 880 nM
- IC50 [4, 9]: 690 nM

Structure (SMILES): CN(C)C/C=C/C(=O)Nc1cc2c(Nc3ccc4c(cnn4Cc4cccc(F)c4)c3)ncnc2cn1 [Compound 2, (2E)-4-(dimethylamino)-N-(4-{[1-(3-fluorobenzyl)-1H-indazol-5-yl]amino}pyrido[3,4-d]pyrimidin-6-yl)-2-butenamide]
- Drug related deaths [1]: 0
- Weight Loss Nadir (%) [1]: −7.9 ± 0.6%
- A431 HCR (Hypoxic Cytotoxicity Ratio) [2]: 1.0
- IC50 [2, 7]: 90 nM
- IC50 [3, 8]: 1000 nM
- IC50 [4, 9]: 900 nM

Structure (SMILES): CN(C)C/C=C/C(=O)Nc1cc2c(Nc3ccc(Cl)c(Cl)c3)ncnc2cn1 [Compound 4, (2E)-N-[4-(3,4-dichloroanilino)pyrido[3,4-d]pyrimidin-6-yl]-4-(dimethylamino)-2-butenamide]
- Drug related deaths [1]: 0
- Weight Loss Nadir (%) [1]: −9.7 ± 4.0%
- A431 HCR (Hypoxic Cytotoxicity Ratio) [2]: 0.9
- IC50 [2, 7]: 15 nM
- IC50 [2, 10]: 9 nM
- IC50 [3, 8]: 560 nM
- SKOV3 HCR (Hypoxic Cytotoxicity Ratio) [4]: 0.9
- IC50 [4, 9]: 550 nM
- IC50 [4, 11]: 360 nM

Structure (SMILES): CN(C)C/C=C/C(=O)Nc1cc2c(Nc3ccc(Br)c(Br)c3)ncnc2cn1 [Compound 7, (2E)-N-[4-(3,4-dibromoanilino)pyrido[3,4-d]pyrimidin-6-yl]-4-(dimethylamino)-2-butenamide]
- Drug related deaths [1]: 1
- Weight Loss Nadir (%) [1]: −4.9 ± 2.4%
- A431 HCR (Hypoxic Cytotoxicity Ratio) [2]: 0.8
- IC50 [2, 7]: 8 nM
- IC50 [2, 10]: 5 nM
- H1975 HCR (Hypoxic Cytotoxicity Ratio) [3]: 1.0
- IC50 [3, 8]: 270 nM
- IC50 [3, 12]: 180 nM
- IC50 [4, 9]: 600 nM
- IC50 [4, 11]: 370 nM

Structure (SMILES): C#Cc1cc(Nc2ncnc3cnc(NC(=O)/C=C/CN(C)C)cc23)ccc1F [Compound 8, (2E)-4-(dimethylamino)-N-[4-(3-ethynyl-4-fluoroanilino)pyrido[3,4-d]pyrimidin-6-yl]-2-butenamide]
- Drug related deaths [1]: 0
- Weight Loss Nadir (%) [1]: −3.3 ± 3.0%
- IC50 [2, 7]: 120 nM
- IC50 [3, 8]: 1400 nM
- IC50 [4, 9]: 1800 nM

Structure (SMILES): C#Cc1cc(Nc2ncnc3cnc(NC(=O)/C=C/CN(C)C)cc23)ccc1Cl [Compound 9, (2E)-N-[4-(4-chloro-3-ethynylanilino)pyrido[3,4-d]pyrimidin-6-yl]-4-(dimethylamino)-2-butenamide]
- Drug related deaths [5]: 0
- TGD (Tumour Growth Delay) [5]: >250%
- Weight Loss Nadir (%) [5]: −1.7 ± 1.7%
- IC50 [2, 7]: 16 nM
- H1975 HCR (Hypoxic Cytotoxicity Ratio) [3]: 0.5
- IC50 [3, 8]: 560 nM
- IC50 [4, 9]: 960 nM

Structure (SMILES): Cn1cnc([N+](=O)[O-])c1C[N+](C)(C)C/C=C/C(=O)Nc1cc2c(Nc3ccc(OCc4cccc(Cl)c4)c(Cl)c3)ncnc2cn1 [Compound 12, (2E)-4-[(4-{3-chloro-4-[(3-chlorobenzyl)oxy]anilino}pyrido[3,4-d]pyrimidin-6-yl)amino]-N,N-dimethyl-N-[(1-methyl-4-nitro-1H-imidazol-5-yl)methyl]-4-oxo-2-buten-1-ammonium bromide]
- Drug related deaths [1]: 0
- Weight Loss Nadir (%) [1]: −7.8 ± 0.6%
- IC50 [2, 7]: 370 nM
- IC50 [2, 10]: 2900 nM
- H1975 HCR (Hypoxic Cytotoxicity Ratio) [3]: 14
- IC50 [3, 8]: 2400 nM
- IC50 [3, 12]: 36000 nM
- SKOV3 HCR (Hypoxic Cytotoxicity Ratio) [4]: 26
- IC50 [4, 9]: 8100 nM
- IC50 [4, 11]: 47000 nM

- IC50 [2, 7]: 63 nM
- IC50 [2, 10]: 5700 nM
- IC50 [3, 8]: 1200 nM
- IC50 [3, 12]: 20000 nM
- IC50 [4, 9]: 1100 nM
- IC50 [4, 11]: 32000 nM
Structure (SMILES): Cc1nc([N+](=O)[O-])c(C[N+](C)(C)C/C=C/C(=O)Nc2cc3c(Nc4ccc5c(cnn5Cc5cccc(F)c5)c4)ncnc3cn2)n1C [Compound 14, (2E)-N-[(1,2-dimethyl-4-nitro-1H-imidazol-5-yl)methyl]-4-[(4-{[1-(3-fluorobenzyl)-1H-indazol-5-yl]amino}pyrido[3,4-d]pyrimidin-6-yl)amino]-N,N-dimethyl-4-oxo-2-buten-1-ammonium bromide]
- H1975 HCR (Hypoxic Cytotoxicity Ratio) [3]: 26

Structure (SMILES): Cn1cnc([N+](=O)[O-])c1C[N+](C)(C)C/C=C/C(=O)Nc1cc2c(Nc3ccc(Br)c(Cl)c3)ncnc2cn1.[Br-] [Compound 18, (2E)-4-{[4-(4-bromo-3-chloroanilino)pyrido[3,4-d]pyrimidin-6-yl]amino}-N,N-dimethyl-N-[(1-methyl-4-nitro-1H-imidazol-5-yl)methyl]-4-oxo-2-buten-1-ammonium bromide]
- E(1)/V 1-electron reduction potential [6]: −0.428 V
- Drug related deaths [5]: 0
- TGD (Tumour Growth Delay) [5]: >250%
- Weight Loss Nadir (%) [5]: −4.1 ± 0.4%
- IC50 [2, 7]: 12 nM
- IC50 [2, 10]: 500 nM
- IC50 [3, 8]: 200 nM
- IC50 [3, 12]: 13300 nM
- SKOV3 HCR (Hypoxic Cytotoxicity Ratio) [4]: 24
- IC50 [4, 9]: 600 nM
- IC50 [4, 11]: 13000 nM

Structure (SMILES): Cn1cnc([N+](=O)[O-])c1C[N+](C)(C)C/C=C/C(=O)Nc1cc2c(Nc3ccc(Br)c(Br)c3)ncnc2cn1.[Br-] [Compound 19, (2E)-4-{[4-(3,4-dibromoanilino)pyrido[3,4-d]pyrimidin-6-yl]amino}-N,N-dimethyl-N-[(1-methyl-4-nitro-1H-imidazol-5-yl)methyl]-4-oxo-2-buten-1-ammonium bromide]
- E(1)/V 1-electron reduction potential [6]: −0.425 V
- Drug related deaths [1]: 1
- TGD (Tumour Growth Delay) ([1]; % increase in time to RTV4 relative to control): 138%
- Weight Loss Nadir (%) [1]: −2.7 ± 0.6%
- IC50 [2, 7]: 25 nM
- IC50 [2, 10]: 420 nM
- IC50 [3, 8]: 230 nM
- IC50 [3, 12]: 15000 nM
- IC50 [4, 9]: 420 nM
- IC50 [4, 11]: 29000 nM

Structure (SMILES): C#Cc1cc(Nc2ncnc3cnc(NC(=O)/C=C/C[N+](C)(C)Cc4c([N+](=O)[O-])ncn4C)cc23)ccc1F [Compound 20, (2E)-4-{[4-(3-ethynyl-4-fluoroanilino)pyrido[3,4-d]pyrimidin-6-yl]amino}-N,N-dimethyl-N-[(1-methyl-4-nitro-1H-imidazol-5-yl)methyl]-4-oxo-2-buten-1-ammonium bromide]
- Drug related deaths [1]: 0
- Weight Loss Nadir (%) [1]: −4.4 ± 2.3%
- IC50 [2, 7]: 130 nM
- IC50 [2, 10]: 3900 nM
- IC50 [3, 8]: 3300 nM
- IC50 [3, 12]: 118000 nM
- SKOV3 HCR (Hypoxic Cytotoxicity Ratio) [4]: 15
- IC50 [4, 9]: 4400 nM
- IC50 [4, 11]: 194000 nM

Structure (SMILES): C#Cc1cc(Nc2ncnc3cnc(NC(=O)/C=C/C[N+](C)(C)Cc4c([N+](=O)[O-])ncn4C)cc23)ccc1Cl [Compound 21, (2E)-4-{[4-(4-chloro-3-ethynylanilino)pyrido[3,4-d]pyrimidin-6-yl]amino}-N,N-dimethyl-N-[(1-methyl-4-nitro-1H-imidazol-5-yl)methyl]-4-oxo-2-buten-1-ammonium bromide]
- Drug related deaths [5]: 0
- TGD (Tumour Growth Delay) [5]: >250%
- Weight Loss Nadir (%) [5]: −4.3 ± 2.3%
- IC50 [2, 7]: < 10 nM
- IC50 [2, 10]: 850 nM
- H1975 HCR (Hypoxic Cytotoxicity Ratio) [3]: 18
- IC50 [3, 8]: 600 nM
- IC50 [3, 12]: 18000 nM
- IC50 [4, 9]: 1130 nM
- IC50 [4, 11]: 47000 nM
